Reference: US20100184094A1, “USE OF MDCK CELLS IN THE EVALUATION OF CHOLESTEROL MODULATORS” (priority 2007, published 2010)
Like-named read-outs stand apart in the source and are kept apart here.

Target: T1, human NPC1L1 (Homo sapiens, UniProt Q9UHC9)
T1 construct: expressed in transfected cells
T1 sequence (Q9UHC9 22-1359): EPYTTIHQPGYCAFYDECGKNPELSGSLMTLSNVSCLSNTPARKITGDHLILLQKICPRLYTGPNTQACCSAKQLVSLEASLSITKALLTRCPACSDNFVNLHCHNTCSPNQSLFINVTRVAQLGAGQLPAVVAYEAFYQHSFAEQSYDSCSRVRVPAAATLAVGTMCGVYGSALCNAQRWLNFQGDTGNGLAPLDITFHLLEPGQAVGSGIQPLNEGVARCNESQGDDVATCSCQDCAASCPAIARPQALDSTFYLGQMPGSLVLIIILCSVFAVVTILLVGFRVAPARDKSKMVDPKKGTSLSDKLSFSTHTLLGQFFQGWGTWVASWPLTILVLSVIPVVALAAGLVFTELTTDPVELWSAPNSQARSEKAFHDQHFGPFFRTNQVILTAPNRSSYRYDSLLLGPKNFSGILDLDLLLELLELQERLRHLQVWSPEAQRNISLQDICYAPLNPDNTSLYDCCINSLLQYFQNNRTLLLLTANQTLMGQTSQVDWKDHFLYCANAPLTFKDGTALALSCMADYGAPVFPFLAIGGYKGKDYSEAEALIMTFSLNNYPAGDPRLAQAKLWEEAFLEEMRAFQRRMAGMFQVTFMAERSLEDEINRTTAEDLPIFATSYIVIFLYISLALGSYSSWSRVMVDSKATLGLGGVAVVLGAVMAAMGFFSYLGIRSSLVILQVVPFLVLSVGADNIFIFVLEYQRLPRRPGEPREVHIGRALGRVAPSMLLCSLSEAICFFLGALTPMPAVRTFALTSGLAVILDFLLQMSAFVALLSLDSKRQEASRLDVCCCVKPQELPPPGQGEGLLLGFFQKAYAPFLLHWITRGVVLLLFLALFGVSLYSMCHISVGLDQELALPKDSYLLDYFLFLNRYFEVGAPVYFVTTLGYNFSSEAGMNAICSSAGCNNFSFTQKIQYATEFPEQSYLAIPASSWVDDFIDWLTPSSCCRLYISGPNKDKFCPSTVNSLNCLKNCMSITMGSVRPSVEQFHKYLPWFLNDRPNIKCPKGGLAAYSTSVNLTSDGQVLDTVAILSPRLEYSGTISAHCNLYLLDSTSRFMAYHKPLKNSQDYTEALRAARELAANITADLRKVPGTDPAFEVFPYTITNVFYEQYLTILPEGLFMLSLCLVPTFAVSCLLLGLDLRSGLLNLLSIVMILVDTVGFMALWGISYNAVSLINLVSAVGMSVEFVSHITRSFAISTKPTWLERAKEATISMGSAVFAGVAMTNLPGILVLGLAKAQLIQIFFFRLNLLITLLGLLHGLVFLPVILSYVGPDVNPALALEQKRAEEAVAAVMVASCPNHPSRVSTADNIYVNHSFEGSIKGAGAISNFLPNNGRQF
Test: [3H]cholesterol flux into hNPC1L1/MDCKII-Flp cells
Type: cell-based
Settings: for IC50: hNPC1L1/MDCKII-Flp
Procedure: Flux assays were performed essentially as described by Yu et al., 2006 J Biol. Chem. 281:6616-6624. Briefly, cell growth medium was completely aspirated and replaced with 200 μl of 5% LPDS containing the appropriate concentration of compound and incubated at 37° C./3 h in a 5% CO2 incubator. Media was subsequently aspirated from cells and cells were incubated in 200 μl of 0-5.5% βmCD dissolved and filtered through a […] filter at 37° C./45 minutes in a 5% CO2 incubator. Media was dumped from cells that were then washed twice with 125 μl of 5% LPDS before media was aspirated and [3H]cholesterol complexed to BSA in 5% LPDS was added; see Yu et al., 2006 J. Biol. Chem. 281:6616-6624. After 45 minute incubation, cells were washed twice with DMEM, thoroughly aspirated and then 1% SDS was added prior to extraction for scintillation counting.
To validate MDCKII cells as an appropriate surrogate system for monitoring NPC1L1-dependent processes, we evaluated their ability to perform EZE-sensitive cholesterol flux using a similar protocol to that recently reported. This assay makes use of the ability of βmCD to deplete membrane-bound cholesterol. Subsequent exposure of cells to [^3H] cholesterol provides a time-dependent flux of this substrate into the cells. […] In an attempt to improve the assay window, a stable MDCKII-Flp cell line over-expressing human NPC1L1, hNPC1L1/MDCKII-Flp, was generated.
To further characterize the [^3H] cholesterol influx process into MDCK cells, the potency of EZE-like compound PS for inhibiting [^3H] cholesterol uptake was determined.

[1] = FIG. 7D, read-out: IC50 block of [3H]cholesterol flux

Compound	IC50 [1]	blockade of [3H]cholesterol influx (10 μM PS, 5.5% βmCD treatment)	IC50 (FIG. 7C, read-out: IC50 inhibition of [3H]cholesterol uptake)
O=C1[C@H](CC[C@H](O)c2ccc(F)cc2)[C@@H](c2ccc(O)cc2)N1c1ccc(F)cc1 [EZE, Ezetimibe]	> 1000 nM	–	–
COC(=O)[C@H]1O[C@@H](Oc2ccc([C@@H]3[C@@H](CC[C@H](O)c4ccc(F)cc4)C(=O)N3c3ccc(C#CCNS(C)(=O)=O)cc3)cc2)[C@H](O)[C@@H](O)[C@@H]1O [PS, 4-[(2S,3R)-3-[(3S)-3-(4-fluorophenyl)-3-hydroxypropyl]-1-(4-{3-[(methylsulfonyl)amino]prop-1-yn-1-yl}phenyl)-4-oxoazetidin-2-yl]phenyl methyl-β-D-glucopyranosiduronate]	7 nM	almost completely blocked	10.3 ± 1.5 nM
O=C(O)[C@H]1O[C@@H](Oc2ccc([C@@H]3[C@@H](CC[C@H](O)c4ccc(F)cc4)C(=O)N3c3ccc(F)cc3)cc2)[C@H](O)[C@@H](O)[C@@H]1O [EZE-gluc, ezetimibe glucuronide]	300 nM	–	–
